From patent US20230123334A1, “AMINO LIPID COMPOUND, PREPARATION METHOD THEREFOR, AND APPLICATION THEREOF” (SHENZHEN SHENXIN BIOTECHNOLOGY CO., LTD., priority 2020, published 2023) come the findings set out here.

The subject of this experiment is HEK293 cells. As to the kind of experiment: Preliminary screening as mRNA vectors, EGFP mRNA transfection of HEK293 cells. The class given is cell-based. The following applies: EGFP mRNA 50 ng per well, 96-well plates; percentage of GFP fluorescent cells relative to total number of cells (Hoechst). The essentials: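 Screening format: EGFP mRNA transfection (50 ng/well) into HEK293 in 10% FBS-supplemented DMEM. Percent green fluorescent cells, normalised to Hoechst nuclear count, gave the value; Lipofectamine2000 was the reference transfectant.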
With `CCCCCCCCCCCCCCCCSc1nc(NCCN2CCCCC2)nc(SCCCCCC)n1` [Compound D4S6S16], the “Absolute mRNA transfection efficiency in HEK293 cells” value (shortened to “Absolute mRNA transfection efficiency”) stood at 5.1%. Take `CCCCCCCCCCCCCCCCCCSc1nc(NCCN2CCCCC2)nc(SCCCCCC)n1` [Compound D4S6S18]: the “Absolute mRNA transfection efficiency” value came to 8.8%.

On to `CCCCCCCSc1nc(NCCCCCC)nc(NCCN2CCCCC2)n1` [Compound D4S7N6], for which the “Absolute mRNA transfection efficiency” value is 4.5%. `CCCCCCCNc1nc(NCCN2CCCCC2)nc(SCCCCCCC)n1` [Compound D4S7N7]: the “Absolute mRNA transfection efficiency” value turned out to be 3.4%. Turning to `CCCCCCCCNc1nc(NCCN2CCCCC2)nc(SCCCCCCC)n1` [Compound D4S7N8], the “Absolute mRNA transfection efficiency” value is recorded as 0.5%. Consider `CCCCCCCCCNc1nc(NCCN2CCCCC2)nc(SCCCCCCC)n1` [Compound D4S7N9], for which the “Absolute mRNA transfection efficiency” value is recorded as 4.9%.

Regarding `CCCCCCCCCCCNc1nc(NCCN2CCCCC2)nc(SCCCCCCC)n1` [Compound D4S7N11], the “Absolute mRNA transfection efficiency” value was 1.0%. Regarding `CCCCCCCCCCCCNc1nc(NCCN2CCCCC2)nc(SCCCCCCC)n1` [Compound D4S7N12], the “Absolute mRNA transfection efficiency” value is 0.6%. Consider `CCCCCCCCCCCCCNc1nc(NCCN2CCCCC2)nc(SCCCCCCC)n1` [Compound D4S7N13], for which the “Absolute mRNA transfection efficiency” value is listed as 0.7%. Turning to `CCCCCCCCCCCCCCCNc1nc(NCCN2CCCCC2)nc(SCCCCCCC)n1` [Compound D4S7N15], the “Absolute mRNA transfection efficiency” value worked out at 2.6%.

On to `CCCCCCCCCCCCCCCCNc1nc(NCCN2CCCCC2)nc(SCCCCCCC)n1` [Compound D4S7N16], for which the “Absolute mRNA transfection efficiency” value is 1.3%. For `CCCCCCCCCCCCCCCCCCNc1nc(NCCN2CCCCC2)nc(SCCCCCCC)n1` [Compound D4S7N18] the value was 7.9%. Take `CCCCCCCSc1nc(NCCN2CCCCC2)nc(SCCCCCCC)n1` [Compound D4S7S7]: the “Absolute mRNA transfection efficiency” value is listed as 13.5%. As to `CCCCCCCCSc1nc(NCCN2CCCCC2)nc(SCCCCCCC)n1` [Compound D4S7S8], the “Absolute mRNA transfection efficiency” value came out at 5.9%. For `CCCCCCCCCSc1nc(NCCN2CCCCC2)nc(SCCCCCCC)n1` [Compound D4S7S9], the “Absolute mRNA transfection efficiency” value stood at 3.7%. Take `CCCCCCCCCCSc1nc(NCCN2CCCCC2)nc(SCCCCCCC)n1` [Compound D4S7S10]: the “Absolute mRNA transfection efficiency” value worked out at 2.7%. On to `CCCCCCCCCCCSc1nc(NCCN2CCCCC2)nc(SCCCCCCC)n1` [Compound D4S7S11], for which the “Absolute mRNA transfection efficiency” value turned out to be 8.0%. Regarding `CCCCCCCCCCCCSc1nc(NCCN2CCCCC2)nc(SCCCCCCC)n1` [Compound D4S7S12], the “Absolute mRNA transfection efficiency” value is 9.2%. On to `CCCCCCCCCCCCCCSc1nc(NCCN2CCCCC2)nc(SCCCCCCC)n1` [Compound D4S7S14], for which the “Absolute mRNA transfection efficiency” value was 8.3%.

Consider `CCCCCCCCCCCCCCCSc1nc(NCCN2CCCCC2)nc(SCCCCCCC)n1` [Compound D4S7S15], for which the “Absolute mRNA transfection efficiency” value was determined as 6.7%. As to `CCCCCCCCCCCCCCCCSc1nc(NCCN2CCCCC2)nc(SCCCCCCC)n1` [Compound D4S7S16], the “Absolute mRNA transfection efficiency” value is reported as 8.8%. Turning to `CCCCCCCCCCCCCCCCCCSc1nc(NCCN2CCCCC2)nc(SCCCCCCC)n1` [Compound D4S7S18], the “Absolute mRNA transfection efficiency” value is reported as 4.5%.

On to `CCCCCCCCSc1nc(NCCCCCC)nc(NCCN2CCCCC2)n1` [Compound D4S8N6], for which the “Absolute mRNA transfection efficiency” value is reported as 2.7%. With `CCCCCCCCSc1nc(NCCCCCCC)nc(NCCN2CCCCC2)n1` [Compound D4S8N7], the “Absolute mRNA transfection efficiency” value is recorded as 1.8%.

In the case of `CCCCCCCCNc1nc(NCCN2CCCCC2)nc(SCCCCCCCC)n1` [Compound D4S8N8], the “Absolute mRNA transfection efficiency” value stood at 0.6%. Regarding `CCCCCCCCCNc1nc(NCCN2CCCCC2)nc(SCCCCCCCC)n1` [Compound D4S8N9], the “Absolute mRNA transfection efficiency” value is listed as 2.3%.
